One series concerns patients. The conditions noted are these: used clinically as anti-epileptic drugs; cited from earlier work. From the text: (§1) It is well documented that the three CaV3 subtypes participate differentially in a variety of physiological and pathological conditions. Selective pharmacological inhibition is therefore important for dissecting the pathophysiological functions of CaV3 channel subtypes and for the development of therapeutically useful subtype-selective inhibitors.

A further series concerns CaV3. The settings on record: cited from earlier work.
Excerpt: as §1

In another series the target is T1, CaV3.3 (Homo sapiens, UniProt Q9P0X4).
T1 construct: expressed in transfected cells; host or cells: HEK-293
Put plainly: Whole-cell voltage-clamp of CaV3.3 expressed in HEK-293 cells. Format: cell-based. On the procedure: (§2) Human embryonic kidney (HEK) 293 cells were grown in Dulbecco’s modified Eagle’s medium (DMEM) containing 5% fetal bovine serum and penicillin/streptomycin at 37 °C in a 5% CO2 incubator. Cells were transiently transfected with 3 μg plasmid DNA using the calcium-phosphate method. Plasmids of Cav3.1, Cav3.2 or Cav3.3 were separately transfected into three individual plates of HEK-293 cells. After transfection, cells were incubated at 37 °C for 48 h prior to whole-cell voltage-clamp recordings.
(§3) Patch pipettes with a tip resistance of 2.8~3.5 MΩ were pulled from borosilicate glass capillary tubes (Warner Instruments, Holliston, MA, USA) using a P-97 Flaming-Brown type micropipette puller (Sutter Instrument, Novato, CA, USA). Ionic currents were recorded using an Axon Multiclamp 700B microelectrode amplifier (Molecular Devices, San Jose, CA, USA). The sampling frequency for acquisition was 50 kHz and data were low-pass filtered at 2 kHz. Voltage and current commands and digitisation of membrane voltages and currents were controlled using a Digidata 1440A interfaced with Clampex 10.4 (Molecular Devices, San Jose, CA, USA). Data were analysed using pCLAMP10.4 software (Molecular Devices, San Jose, CA, USA).
(§4) To measure CaV3 currents, cells were incubated with the following bath solution (in mM): 145 TEA-Cl, 5 CaCl2, 3 CsCl, 1 MgCl2, 5 glucose, and 10 HEPES, adjusted to pH 7.4 with TEA-OH, osmolarity ~300 mOsm. The pipette solution was as follows (in mM): 130 CsCl, 20 HEPES, 10 EGTA, 5 MgCl2, 3 Mg-ATP, and 0.3 Tris-GTP, adjusted to pH 7.3 with CsOH, osmolarity ~310 mOsm. All recordings were performed at room temperature (21–24 °C). For Cav3.1- or Cav3.2-transfected cells, their membrane potentials were initially held at −90 mV for 20 ms and then depolarized to −30 mV for 150 ms. […] The peak values of Cav3 currents were recorded before and after addition of venom fractions or synthetic peptide. […] The inhibition was calculated by dividing the toxin-reduced peak amplitudes by the peak amplitudes before additions of the toxin.

The target of another series is T2, CaV3.2 (Homo sapiens, UniProt O95180).
T2 construct: expressed in transfected cells; host or cells: HEK-293
T2 sequence (O95180 whole entry): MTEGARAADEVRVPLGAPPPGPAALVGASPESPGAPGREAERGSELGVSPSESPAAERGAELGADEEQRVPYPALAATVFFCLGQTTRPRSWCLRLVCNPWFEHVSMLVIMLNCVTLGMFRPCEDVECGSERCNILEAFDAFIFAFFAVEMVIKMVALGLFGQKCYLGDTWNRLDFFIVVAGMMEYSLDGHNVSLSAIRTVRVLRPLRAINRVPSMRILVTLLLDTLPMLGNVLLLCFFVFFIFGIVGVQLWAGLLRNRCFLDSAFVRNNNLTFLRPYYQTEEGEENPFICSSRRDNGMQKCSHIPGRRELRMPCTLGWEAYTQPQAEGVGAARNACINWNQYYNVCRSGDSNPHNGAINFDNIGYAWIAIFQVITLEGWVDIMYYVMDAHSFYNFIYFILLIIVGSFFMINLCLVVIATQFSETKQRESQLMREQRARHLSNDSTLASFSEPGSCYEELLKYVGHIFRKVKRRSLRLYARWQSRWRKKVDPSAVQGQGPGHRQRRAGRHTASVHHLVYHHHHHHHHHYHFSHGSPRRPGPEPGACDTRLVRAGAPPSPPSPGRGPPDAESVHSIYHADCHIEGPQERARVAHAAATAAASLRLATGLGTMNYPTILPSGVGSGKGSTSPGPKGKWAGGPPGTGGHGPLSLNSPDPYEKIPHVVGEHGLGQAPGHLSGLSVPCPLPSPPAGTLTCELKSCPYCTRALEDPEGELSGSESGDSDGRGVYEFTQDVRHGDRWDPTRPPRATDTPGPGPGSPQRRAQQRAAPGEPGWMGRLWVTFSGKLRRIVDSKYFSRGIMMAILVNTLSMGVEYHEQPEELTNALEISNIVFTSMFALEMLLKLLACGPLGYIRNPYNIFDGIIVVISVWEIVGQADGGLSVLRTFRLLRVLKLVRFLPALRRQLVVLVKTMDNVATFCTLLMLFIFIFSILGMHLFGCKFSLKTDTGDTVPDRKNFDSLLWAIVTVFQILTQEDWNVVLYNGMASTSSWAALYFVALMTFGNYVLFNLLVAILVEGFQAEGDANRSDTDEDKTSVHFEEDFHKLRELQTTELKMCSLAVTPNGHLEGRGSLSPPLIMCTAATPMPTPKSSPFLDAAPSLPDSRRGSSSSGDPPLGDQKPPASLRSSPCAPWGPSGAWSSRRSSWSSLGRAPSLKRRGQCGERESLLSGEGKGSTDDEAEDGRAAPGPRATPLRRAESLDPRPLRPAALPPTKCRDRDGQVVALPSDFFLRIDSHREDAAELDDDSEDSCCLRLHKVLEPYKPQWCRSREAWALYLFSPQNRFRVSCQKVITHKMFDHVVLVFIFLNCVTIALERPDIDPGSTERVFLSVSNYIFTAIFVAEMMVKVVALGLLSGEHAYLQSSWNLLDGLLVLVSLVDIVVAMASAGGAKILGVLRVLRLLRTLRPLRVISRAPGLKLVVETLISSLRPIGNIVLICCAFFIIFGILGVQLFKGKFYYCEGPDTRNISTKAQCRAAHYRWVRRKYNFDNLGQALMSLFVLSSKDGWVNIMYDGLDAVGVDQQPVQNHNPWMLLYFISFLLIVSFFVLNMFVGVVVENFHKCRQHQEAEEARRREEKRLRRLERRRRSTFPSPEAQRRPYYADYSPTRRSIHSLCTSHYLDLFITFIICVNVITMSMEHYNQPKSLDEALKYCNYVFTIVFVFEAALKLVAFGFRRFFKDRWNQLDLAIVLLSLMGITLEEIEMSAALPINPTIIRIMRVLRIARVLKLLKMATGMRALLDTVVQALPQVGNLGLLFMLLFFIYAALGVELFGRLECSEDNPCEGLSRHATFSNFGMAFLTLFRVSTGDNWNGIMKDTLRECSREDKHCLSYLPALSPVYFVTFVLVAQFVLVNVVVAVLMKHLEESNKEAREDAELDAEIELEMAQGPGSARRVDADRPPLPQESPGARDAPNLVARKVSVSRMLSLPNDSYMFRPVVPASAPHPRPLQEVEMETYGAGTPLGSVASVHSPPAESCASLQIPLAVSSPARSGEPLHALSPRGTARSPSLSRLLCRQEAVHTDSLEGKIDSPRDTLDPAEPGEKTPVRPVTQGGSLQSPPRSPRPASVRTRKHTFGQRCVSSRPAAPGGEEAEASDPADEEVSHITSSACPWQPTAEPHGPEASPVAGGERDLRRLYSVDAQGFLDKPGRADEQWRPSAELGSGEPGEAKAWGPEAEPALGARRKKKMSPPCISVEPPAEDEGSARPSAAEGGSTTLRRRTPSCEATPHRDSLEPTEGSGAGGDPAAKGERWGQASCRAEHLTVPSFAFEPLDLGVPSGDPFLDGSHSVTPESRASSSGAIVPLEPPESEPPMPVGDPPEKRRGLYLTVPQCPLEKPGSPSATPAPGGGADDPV
Description: Whole-cell voltage-clamp of CaV3.2 expressed in HEK-293 cells. It is filed as cell-based. The procedure: as §2, §3, §4

Series [1] in a line: Solubility limit in electrophysiology. It is filed as physicochemical. The settings on record: synthetic ω-Avsp1a; working concentration could not be increased above 25 μM.
The next series has as its target T3, CaV3.1 (Homo sapiens, UniProt O43497).
T3 construct: expressed in transfected cells; host or cells: HEK-293
Put plainly: Whole-cell voltage-clamp of CaV3.1 expressed in HEK-293 cells. It is filed as cell-based. The procedure: as §2, §3, §4

Setting [2] is: synthetic ω-Avsp1a, 10, 5, 1, and 0.1 μM, Hill equation fit, HEK-293.

Where a SMILES comes first, the peptide text is derived from it. Bridges are numbered along the chain shown (N, C = ends).

T3 sequence (O43497 whole entry): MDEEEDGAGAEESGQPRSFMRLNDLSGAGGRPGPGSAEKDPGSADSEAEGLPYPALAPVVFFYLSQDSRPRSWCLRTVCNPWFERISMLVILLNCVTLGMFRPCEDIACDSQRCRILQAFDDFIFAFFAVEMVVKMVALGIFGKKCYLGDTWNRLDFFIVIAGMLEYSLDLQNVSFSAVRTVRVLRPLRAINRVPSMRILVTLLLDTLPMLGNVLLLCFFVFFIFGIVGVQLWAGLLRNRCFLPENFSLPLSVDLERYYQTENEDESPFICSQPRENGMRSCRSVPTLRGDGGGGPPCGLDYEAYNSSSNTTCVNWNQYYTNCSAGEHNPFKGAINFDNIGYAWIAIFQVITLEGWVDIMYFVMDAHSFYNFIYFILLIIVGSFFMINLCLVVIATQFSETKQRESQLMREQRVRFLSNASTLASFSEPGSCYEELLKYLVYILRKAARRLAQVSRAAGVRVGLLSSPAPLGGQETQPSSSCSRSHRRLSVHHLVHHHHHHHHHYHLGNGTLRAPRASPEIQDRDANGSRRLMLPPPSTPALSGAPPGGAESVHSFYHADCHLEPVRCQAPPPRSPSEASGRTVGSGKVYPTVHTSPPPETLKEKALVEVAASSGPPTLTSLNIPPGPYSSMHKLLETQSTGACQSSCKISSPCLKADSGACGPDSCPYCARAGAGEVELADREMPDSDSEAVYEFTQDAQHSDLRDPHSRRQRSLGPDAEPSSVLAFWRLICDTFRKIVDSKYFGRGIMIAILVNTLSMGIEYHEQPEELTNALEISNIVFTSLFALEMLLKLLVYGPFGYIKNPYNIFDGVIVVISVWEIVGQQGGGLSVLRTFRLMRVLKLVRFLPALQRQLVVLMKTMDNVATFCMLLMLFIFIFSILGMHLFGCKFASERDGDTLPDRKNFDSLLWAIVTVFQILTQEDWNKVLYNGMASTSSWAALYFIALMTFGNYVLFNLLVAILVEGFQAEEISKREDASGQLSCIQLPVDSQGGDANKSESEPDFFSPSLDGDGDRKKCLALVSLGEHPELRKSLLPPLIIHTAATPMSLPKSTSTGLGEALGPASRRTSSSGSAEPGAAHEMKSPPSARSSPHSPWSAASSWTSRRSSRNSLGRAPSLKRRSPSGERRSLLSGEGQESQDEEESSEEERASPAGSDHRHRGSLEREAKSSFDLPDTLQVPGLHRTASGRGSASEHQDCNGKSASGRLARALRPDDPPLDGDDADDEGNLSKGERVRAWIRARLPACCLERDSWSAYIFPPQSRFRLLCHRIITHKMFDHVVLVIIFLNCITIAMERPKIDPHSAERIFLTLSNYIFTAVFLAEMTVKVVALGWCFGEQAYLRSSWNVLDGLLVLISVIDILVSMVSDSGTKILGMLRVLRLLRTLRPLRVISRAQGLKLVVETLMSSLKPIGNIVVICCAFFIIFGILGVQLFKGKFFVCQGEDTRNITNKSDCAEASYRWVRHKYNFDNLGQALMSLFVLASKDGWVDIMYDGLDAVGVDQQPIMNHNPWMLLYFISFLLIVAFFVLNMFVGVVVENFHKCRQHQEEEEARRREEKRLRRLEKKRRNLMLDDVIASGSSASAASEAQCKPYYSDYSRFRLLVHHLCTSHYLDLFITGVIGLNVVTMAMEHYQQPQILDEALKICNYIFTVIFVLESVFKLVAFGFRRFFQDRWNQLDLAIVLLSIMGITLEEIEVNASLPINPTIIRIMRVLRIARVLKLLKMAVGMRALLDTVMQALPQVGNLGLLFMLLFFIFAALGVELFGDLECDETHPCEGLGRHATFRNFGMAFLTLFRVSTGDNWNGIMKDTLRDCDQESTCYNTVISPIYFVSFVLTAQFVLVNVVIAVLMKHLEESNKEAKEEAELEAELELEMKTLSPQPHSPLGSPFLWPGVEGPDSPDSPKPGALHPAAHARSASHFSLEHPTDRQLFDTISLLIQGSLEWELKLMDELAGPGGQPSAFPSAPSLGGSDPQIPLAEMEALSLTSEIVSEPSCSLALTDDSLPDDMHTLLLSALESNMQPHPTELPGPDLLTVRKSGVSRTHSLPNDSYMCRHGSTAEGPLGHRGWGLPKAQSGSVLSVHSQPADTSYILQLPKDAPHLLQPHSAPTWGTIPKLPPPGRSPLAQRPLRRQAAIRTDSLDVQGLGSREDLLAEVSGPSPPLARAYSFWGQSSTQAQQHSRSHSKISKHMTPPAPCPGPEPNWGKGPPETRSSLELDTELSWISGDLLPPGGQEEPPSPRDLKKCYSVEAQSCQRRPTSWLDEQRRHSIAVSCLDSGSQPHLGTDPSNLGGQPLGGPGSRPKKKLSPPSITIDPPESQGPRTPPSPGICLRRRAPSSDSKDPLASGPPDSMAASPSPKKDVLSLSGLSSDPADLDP

For the molecule `NS(=O)(=O)Cc1noc2ccccc12` [zonisamide], in the series on patients, the “clinical effectiveness as anti-epileptic” value was “not effective in all patients”. Also, the CaV3 subtype specificity entry in the series on CaV3 is on record as “not subtype-specific”.
As usually defined, the inhibition is the drop in the measured response relative to a control, in per cent. The term IC50 denotes the concentration that inhibits the measured activity by half. For the molecule `CC(C)C[C@@H]1NC(=O)[C@H](Cc2ccccc2)NC(=O)[C@H](CCCCN)NC(=O)[C@H](Cc2c[nH]cn2)NC(=O)[C@@H](NC(=O)[C@H](CC(=O)O)NC(=O)CN)CSSC[C@@H]2NC(=O)[C@@H]3CSSC[C@@H](C(=O)N[C@H](C(=O)N[C@@H](Cc4c[nH]c5ccccc45)C(=O)N[C@@H](CC(=O)O)C(=O)N[C@@H](Cc4c[nH]c5ccccc45)C(=O)N[C@H](C(=O)N[C@H](C(N)=O)C(C)C)[C@@H](C)O)C(C)C)NC(=O)[C@H](Cc4c[nH]c5ccccc45)NC(=O)CNC(=O)[C@H](Cc4c[nH]cn4)NC(=O)[C@H](CCCCN)NC(=O)[C@H](CCCNC(=N)N)NC(=O)[C@H](CO)NC(=O)[C@H](CSSC[C@H](NC(=O)[C@H](Cc4c[nH]c5ccccc45)NC(=O)CNC1=O)C(=O)N[C@@H](CCCNC(=N)N)C(=O)NCC(=O)N[C@@H](CCC(=O)O)C(=O)N1CCC[C@H]1C(=O)N[C@@H](CC(=O)O)C(=O)N1CCC[C@H]1C(=O)N3)NC(=O)[C@H](CO)NC(=O)[C@H](CC(C)C)NC(=O)[C@H](Cc1c[nH]cn1)NC(=O)[C@H](CCC(=O)O)NC2=O` [ω-Avsp1a, ω-theraphotoxin-Avsp1a] (H-GDCHKFLGWCRGEPDPCCEHLSCSRKHGWCVWDWTV-NH2; disulfide 3-18, 10-23, 17-30), the inhibition at 4.1 µM was determined as 90% at CaV3.3 (HEK293, pH 7.4, native ω-Avsp1a, 4.1 μM, HEK-293, whole-cell, -90 to -20 mV, room temperature (21–24 °C), pH 7.4, 5 mM CaCl2, n = 3, read-out: current inhibition); 25% at CaV3.2 (HEK293, pH 7.4, native ω-Avsp1a, 4.1 μM, HEK-293, whole-cell, -90 to -30 mV, room temperature (21–24 °C), pH 7.4, 5 mM CaCl2, n = 5, p < 0.001 vs. Cav3.1 and Cav3.3, read-out: current inhibition); 90% at CaV3.1 (HEK293, pH 7.4, native ω-Avsp1a, 4.1 μM, HEK-293, whole-cell, -90 to -30 mV, room temperature (21–24 °C), pH 7.4, 5 mM CaCl2, n = 5, read-out: current inhibition). For the same molecule, the inhibition at 10 µM amounted to 90% at CaV3.3 (HEK293, synthetic ω-Avsp1a, 10 μM, HEK-293, whole-cell, -90 to -20 mV, n = 9, read-out: current inhibition) and 90% on CaV3.1 (HEK293, synthetic ω-Avsp1a, 10 μM, HEK-293, whole-cell, -90 to -30 mV, n = 9, read-out: current inhibition). Moreover, the IC50 at CaV3.3 (setting [2]) was 4.32 ± 1.21 µM; at CaV3.2, greater than 25 µM; on CaV3.1 (setting [2]), 5.06 ± 0.16 µM. Also, the inhibition at 25 µM on CaV3.2 (HEK293, synthetic ω-Avsp1a, 25 μM (section 3.6), read-out: current inhibition) was found to be 31%. Moreover, in series [1], the solubility result is “limited solubility”.
Take `CCC1(C)CC(=O)NC1=O` (centres unmarked) [ethosuximide]: the “clinical effectiveness as anti-epileptic” value with patients is on record as “not effective in all patients”. For the same molecule, the CaV3 subtype specificity entry in the series with CaV3 is “not subtype-specific”.

The values are drawn from paper PMC9138389, “The Tarantula Toxin ω-Avsp1a Specifically Inhibits Human CaV3.1 and CaV3.3 via the Extracellular S3-S4 Loop of the Domain 1 Voltage-Sensor” (Biomedicines, 2022).
